Reference: US7973061B2, “Anaplastic lymphoma kinase modulators and methods of use” (Exelixis, Inc., priority 2004, dated 2011)

molecular target: T1, ALK (baculovirus expressed human ALK kinase domain F1098-K1410) (Homo sapiens, UniProt Q9UM73); assay: biochemical; conditions: 1 μM ATP, 4 μM poly-AEKY, 12 nM ALK, 2 hours at ambient temperature; read-out: ALK IC50
T1 construct: human ALK kinase domain F1098-K1410; made in house
Procedure, shortened: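 Inhibitors were tested at 10 concentrations, and IC50 was derived from a sigmoidal fit (Min, Max, Hill slope). Kinase activity was measured as percent ATP left after a 2 h reaction at room temperature, detected by luciferase-luciferin chemiluminescence. The ATP level was set close to KM for the ALK kinase domain F1098-K1410.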

T1 sequence (Q9UM73 1098-1410): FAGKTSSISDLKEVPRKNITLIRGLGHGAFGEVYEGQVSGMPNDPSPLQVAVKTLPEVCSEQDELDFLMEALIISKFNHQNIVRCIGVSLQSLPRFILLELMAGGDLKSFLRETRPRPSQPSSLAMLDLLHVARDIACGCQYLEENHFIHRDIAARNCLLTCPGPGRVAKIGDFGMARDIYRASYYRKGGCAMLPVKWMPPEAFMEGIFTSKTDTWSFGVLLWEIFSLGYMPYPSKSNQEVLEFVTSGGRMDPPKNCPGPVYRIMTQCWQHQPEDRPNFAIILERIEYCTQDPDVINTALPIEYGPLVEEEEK

| Structure (SMILES) | IC50 [nM] |
| --- | --- |
| CC(NC(=O)c1csc(CNC(=O)COc2ccc(OC(F)(F)F)cc2)n1)c1ccc(Br)cc1 (centres unmarked) [Entry 204, N-[1-(4-bromophenyl)ethyl]-2-({[({4-[(trifluoromethyl)oxy]phenyl}oxy)acetyl]amino}methyl)-1,3-thiazole-4-carboxamide] | 50 to 500 |
| COc1ccc(CCNC(=O)c2coc(CNC(=O)COc3ccc(OC(F)(F)F)cc3)n2)cc1 [Entry 224, N-{2-[4-(methyloxy)phenyl]ethyl}-2-({[({4-[(trifluoromethyl)oxy]phenyl}oxy)acetyl]amino}methyl)-1,3-oxazole-4-carboxamide] | 500 to 2000 |
| O=C(COc1ccc(OC(F)(F)F)cc1)NCc1nc(C(=O)NCc2ccccc2)co1 [Entry 297, N-(phenylmethyl)-2-({[({4-[(trifluoromethyl)oxy]phenyl}oxy)acetyl]amino}methyl)-1,3-oxazole-4-carboxamide] | 500 to 2000 |
| O=C(COc1ccc(OC(F)(F)F)cc1)NCc1nc(C(=O)NCc2ccc(F)cc2C(F)(F)F)cs1 [Entry 244, N-{[4-fluoro-2-(trifluoromethyl)phenyl]methyl}-2-({[({4-[(trifluoromethyl)oxy]phenyl}oxy)acetyl]amino}methyl)-1,3-thiazole-4-carboxamide] | 500 to 2000 |
| O=C(COc1ccc(OC(F)(F)F)cc1)NCc1nc(C(=O)NCCc2ccccn2)co1 [Entry 296, N-(2-pyridin-2-ylethyl)-2-({[({4-[(trifluoromethyl)oxy]phenyl}oxy)acetyl]amino}methyl)-1,3-oxazole-4-carboxamide] | 500 to 2000 |
| O=C(NCCc1cccc(Cl)c1)c1csc(CNCc2ccc(OC(F)(F)F)cc2)n1 [Entry 309, N-[2-(3-chlorophenyl)ethyl]-2-{[({4-[(trifluoromethyl)oxy]phenyl}methyl)amino]methyl}-1,3-thiazole-4-carboxamide] | > 2000 |
| O=C(COc1ccc(OC(F)(F)F)cc1)NCc1nc(C(=O)NCC(c2ccccc2)c2ccccc2)co1 [Entry 226, N-(2,2-diphenylethyl)-2-({[({4-[(trifluoromethyl)oxy]phenyl}oxy)acetyl]amino}methyl)-1,3-oxazole-4-carboxamide] | 500 to 2000 |
| CCC(CC)CNC(=O)c1csc(CNC(=O)COc2ccc(OC(F)(F)F)cc2)n1 [Entry 132, N-(2-ethylbutyl)-2-({[({4-[(trifluoromethyl)oxy]phenyl}oxy)acetyl]amino}methyl)-1,3-thiazole-4-carboxamide] | 50 to 500 |
| CN(CCCNC(=O)c1csc(CNC(=O)COc2ccc(OC(F)(F)F)cc2)n1)c1ccccc1 [Entry 107, N-{3-[methyl(phenyl)amino]propyl}-2-({[({4-[(trifluoromethyl)oxy]phenyl}oxy)acetyl]amino}methyl)-1,3-thiazole-4-carboxamide] | 50 to 500 |
| Cc1ccc(C)c(CCNC(=O)c2csc(CNC(=O)COc3ccc(OC(F)(F)F)cc3)n2)c1 [Entry 33, N-[2-(2,5-dimethylphenyl)ethyl]-2-({[({4-[(trifluoromethyl)oxy]phenyl}oxy)acetyl]amino}methyl)-1,3-thiazole-4-carboxamide] | 50 to 500 |
| O=C(COc1ccc(OC(F)(F)F)cc1)NCc1nc(C(=O)NCCSCc2ccco2)cs1 [Entry 71, N-{2-[(furan-2-ylmethyl)thio]ethyl}-2-({[({4-[(trifluoromethyl)oxy]phenyl}oxy)acetyl]amino}methyl)-1,3-thiazole-4-carboxamide] | 50 to 500 |
| O=C(COc1ccc(OC(F)(F)F)cc1)NCc1nc(C(=O)NCCc2ccc(Br)cc2)co1 [Entry 231, N-[2-(4-bromophenyl)ethyl]-2-({[({4-[(trifluoromethyl)oxy]phenyl}oxy)acetyl]amino}methyl)-1,3-oxazole-4-carboxamide] | 500 to 2000 |
| O=C(Cc1ccc2ccccc2c1)NCc1nc(C(=O)NCCc2cccc(Cl)c2)cs1 [Entry 117, N-[2-(3-chlorophenyl)ethyl]-2-{[(naphthalen-2-ylacetyl)amino]methyl}-1,3-thiazole-4-carboxamide] | 50 to 500 |
| Cc1ccccc1CNC(=O)c1coc(CNC(=O)COc2ccc(OC(F)(F)F)cc2)n1 [Entry 288, N-[(2-methylphenyl)methyl]-2-({[({4-[(trifluoromethyl)oxy]phenyl}oxy)acetyl]amino}methyl)-1,3-oxazole-4-carboxamide] | 500 to 2000 |
| O=C(COc1ccc(OC(F)(F)F)cc1)NCc1nc(C(=O)NCc2cccc(I)c2)cs1 [Entry 157, N-[(3-iodophenyl)methyl]-2-({[({4-[(trifluoromethyl)oxy]phenyl}oxy)acetyl]amino}methyl)-1,3-thiazole-4-carboxamide] | 50 to 500 |

The remaining lines, values ahead:

| IC50 [nM] | Structure (SMILES) |
| --- | --- |
| 50 to 500 | O=C(COc1ccc(OC(F)(F)F)cc1)NCc1nc(C(=O)N2CCc3ccccc3C2)cs1 [Entry 139, N-{[4-(3,4-dihydroisoquinolin-2(1H)-ylcarbonyl)-1,3-thiazol-2-yl]methyl}-2-({4-[(trifluoromethyl)oxy]phenyl}oxy)acetamide] |
| 50 to 500 | Cc1ccsc1CNC(=O)c1csc(CNC(=O)COc2ccc(OC(F)(F)F)cc2)n1 [Entry 133, N-[(3-methyl-2-thienyl)methyl]-2-({[({4-[(trifluoromethyl)oxy]phenyl}oxy)acetyl]amino}methyl)-1,3-thiazole-4-carboxamide] |
| 50 to 500 | CC1CCCCC1NC(=O)c1csc(CNC(=O)COc2ccc(OC(F)(F)F)cc2)n1 (centres unmarked) [Entry 87, N-(2-methylcyclohexyl)-2-({[({4-[(trifluoromethyl)oxy]phenyl}oxy)acetyl]amino}methyl)-1,3-thiazole-4-carboxamide] |
| 50 to 500 | O=C(COc1ccc(OC(F)(F)F)cc1)NCc1nc(C(=O)NCCc2ccccc2)cs1 [Entry 145, N-(2-phenylethyl)-2-({[({4-[(trifluoromethyl)oxy]phenyl}oxy)acetyl]amino}methyl)-1,3-thiazole-4-carboxamide] |
| 50 to 500 | CC(C)c1ccc(OCC(=O)NCc2nc(C(=O)NCCc3ccccc3F)cs2)cc1 [Entry 55, N-[2-(2-fluorophenyl)ethyl]-2-{[({[4-(1-methylethyl)phenyl]oxy}acetyl)amino]methyl}-1,3-thiazole-4-carboxamide] |
| 50 to 500 | Cc1ccc(NC(=O)NCc2nc(C(=O)NCCc3cccc(Cl)c3)cs2)cc1 [Entry 168, N-[2-(3-chlorophenyl)ethyl]-2-[({[(4-methylphenyl)amino]carbonyl}amino)methyl]-1,3-thiazole-4-carboxamide] |
| 50 to 500 | COc1ccccc1CNC(=O)c1csc(CNC(=O)Nc2ccc(C(C)C)cc2)n1 [Entry 29, 2-{[({[4-(1-methylethyl)phenyl]amino}carbonyl)amino]methyl}-N-{[2-(methyloxy)phenyl]methyl}-1,3-thiazole-4-carboxamide] |
| 50 to 500 | O=C(COc1ccc(OC(F)(F)F)cc1)NCc1nc(C(=O)N[C@@H](Cc2ccccc2)C(=O)N2CCCC2)cs1 [Entry 91, N-[(1S)-2-oxo-1-(phenylmethyl)-2-pyrrolidin-1-ylethyl]-2-({[({4-[(trifluoromethyl)oxy]phenyl}oxy)acetyl]amino}methyl)-1,3-thiazole-4-carboxamide] |
| 50 to 500 | CCCCNC(=O)c1csc(CNC(=O)COc2ccc(OC(F)(F)F)cc2)n1 [Entry 177, N-butyl-2-({[({4-[(trifluoromethyl)oxy]phenyl}oxy)acetyl]amino}methyl)-1,3-thiazole-4-carboxamide] |
| 500 to 2000 | O=C(C/C=C/c1ccccc1)NCc1nc(C(=O)NCCc2ccccc2F)cs1 [Entry 276, N-[2-(2-fluorophenyl)ethyl]-2-({[(3E)-4-phenylbut-3-enoyl]amino}methyl)-1,3-thiazole-4-carboxamide] |
| 500 to 2000 | O=C(NCCc1cccc(Cl)c1)c1csc(CNC(=O)C2(c3ccc(Cl)cc3)CC2)n1 [Entry 236, 2-[({[1-(4-chlorophenyl)cyclopropyl]carbonyl}amino)methyl]-N-[2-(3-chlorophenyl)ethyl]-1,3-thiazole-4-carboxamide] |
| 50 to 500 | CC(C)(C)CC(C)(C)NC(=O)c1csc(CNC(=O)COc2ccc(OC(F)(F)F)cc2)n1 [Entry 196, N-(1,1,3,3-tetramethylbutyl)-2-({[({4-[(trifluoromethyl)oxy]phenyl}oxy)acetyl]amino}methyl)-1,3-thiazole-4-carboxamide] |
| 50 to 500 | O=C(COc1ccc(OC(F)(F)F)cc1)NCc1nc(C(=O)NCCc2ccncc2)cs1 [Entry 48, N-(2-pyridin-4-ylethyl)-2-({[({4-[(trifluoromethyl)oxy]phenyl}oxy)acetyl]amino}methyl)-1,3-thiazole-4-carboxamide] |
| 50 to 500 | CCCCC(CC)COCCCNC(=O)c1csc(CNC(=O)COc2ccc(OC(F)(F)F)cc2)n1 (centres unmarked) [Entry 100, N-{3-[(2-ethylhexyl)oxy]propyl}-2-({[({4-[(trifluoromethyl)oxy]phenyl}oxy)acetyl]amino}methyl)-1,3-thiazole-4-carboxamide] |
| 500 to 2000 | COCCCNC(=O)c1csc(CNC(=O)COc2ccc(OC(F)(F)F)cc2)n1 [Entry 269, N-[3-(methyloxy)propyl]-2-({[({4-[(trifluoromethyl)oxy]phenyl}oxy)acetyl]amino}methyl)-1,3-thiazole-4-carboxamide] |
| < 50 | C[C@@H]1[C@@H](NC(=O)c2csc(CNC(=O)COc3ccc(OC(F)(F)F)cc3)n2)C[C@H]2C[C@@H]1C2(C)C [Entry 12, 2-({[({4-[(trifluoromethyl)oxy]phenyl}oxy)acetyl]amino}methyl)-N-[(1S,2S,3S,5R)-2,6,6-trimethylbicyclo[3.1.1]hept-3-yl]-1,3-thiazole-4-carboxamide] |
| 50 to 500 | O=C(COc1ccc(OC(F)(F)F)cc1)NCc1nc(C(=O)NCc2cc(F)cc(F)c2)cs1 [Entry 126, N-[(3,5-difluorophenyl)methyl]-2-({[({4-[(trifluoromethyl)oxy]phenyl}oxy)acetyl]amino}methyl)-1,3-thiazole-4-carboxamide] |
